# Measurements from patent US20180036289A1 (Gilead Sciences, Inc., priority 2016, published 2018).
# Tests used:
# Test in all cases: Cell proliferation assay (ATPlite), drug with vs without cobicistat
# Format in all cases: cell-based
# [1] = test system: Hs 578T; settings: Hs 578T cell line; 120 hours incubation
# Description: (§1) All cell lines were obtained from the American Type Culture Collection (ATCC) Manassas, Va. (US). Master and working cell banks (MCB and WCB) were prepared by subculturing in ATCC-recommended media and freezing protocols (www.atcc.org). Cell line stocks for the assays were prepared from the WCB. The MCB, WCBs and assay stocks were prepared within respectively 3, 6 and 9 passages of the ATCC vial.
# (§2) Solid powders of reference compounds were weighed on a calibrated balance and dissolved in 100% DMSO. DMSO samples were stored at room temperature. At the day of the experiment, the compound stock was diluted in 3.16 fold steps in 100% DMSO to obtain a 9-point dilution series. This was further diluted 31.6 times in 20 mM sterile Hepes buffer pH 7.4. A volume of 5 μl was transferred to the cells to generate a test concentration range from 3.16×10^−5M to 3.16×10^−9 M in duplicate. The final DMSO concentration during incubation was […] in all wells.
# (§3) An assay stock was thawed and diluted in its ATCC recommended medium and dispensed in a 384-well plate, depending on the cell line used, at a concentration of 200-3200 cells per well in 45 μl medium. For each used cell line the optimal cell density is used. The margins of the plate were filled with phosphate-buffered saline. Plated cells were incubated in a humidified atmosphere of 5% CO2 at 37° C. After 24 hours, 5 μl of compound dilution was added and plates were further incubated for another 120 hours. After 120 hours, 25 μl of ATPlite 1Step™ (PerkinElmer) solution was added to each well, and subsequently shaken for 2 minutes. After 10 minutes of incubation in the dark, the luminescence was recorded on an Envision multimode reader (PerkinElmer).
# (§4) IC50s were calculated by non-linear regression using IDBS XLfit 5. The percentage growth after 120 h (%-growth) was calculated as follows: 100%×(luminescencet=120h/luminescenceuntreated,t=120h). This was fitted to the ^10log compound concentration (conc) by a 4-parameter logistics curve: %−growth=bottom+(top−bottom)/(1+10^(log IC50-conc)*hill)), where hill is the Hill-coefficient, and bottom and top the asymptotic minimum and maximum cell growth that the compound allows in that assay.
# [2] = test system: SW48; settings: SW48 cell line; 120 hours incubation
# Description: as §1, §2, §3, §4
# [3] = test system: BxPC-3; settings: BxPC-3 cell line; 120 hours incubation
# Description: as §1, §2, §3, §4
# [4] = test system: DoTc2 4510; settings: DoTc2 4510 cell line; 120 hours incubation
# Description: as §1, §2, §3, §4
# [5] = test system: SUP-T1; settings: SUP-T1 cell line; 120 hours incubation
# Description: as §1, §2, §3, §4
# [6] = test system: DU 145; settings: DU 145 cell line; 120 hours incubation
# Description: as §1, §2, §3, §4
# [7] = test system: MG-63; settings: MG-63 cell line; 120 hours incubation
# Description: as §1, §2, §3, §4
# [8] = test system: LNCaP FGC; settings: LNCaP FGC cell line; 120 hours incubation
# Description: as §1, §2, §3, §4
# [9] = test system: C-33 A; settings: C-33 A cell line; 120 hours incubation
# Description: as §1, §2, §3, §4
# [10] = test system: SNU-C2B; settings: SNU-C2B cell line; 120 hours incubation
# Description: as §1, §2, §3, §4
# [11] = test system: MOLT-4; settings: MOLT-4 cell line; 120 hours incubation
# Description: as §1, §2, §3, §4
# [12] = test system: MIA PaCa-2; settings: MIA PaCa-2 cell line; 120 hours incubation
# Description: as §1, §2, §3, §4
# [13] = test system: 769-P; settings: 769-P cell line; 120 hours incubation
# Description: as §1, §2, §3, §4
# [14] = test system: HCT-15; settings: HCT-15 cell line; 120 hours incubation
# Description: as §1, §2, §3, §4
# [15] = test system: 786-O; settings: 786-O cell line; 120 hours incubation
# Description: as §1, §2, §3, §4
# [16] = test system: SW480; settings: SW480 cell line; 120 hours incubation
# Description: as §1, §2, §3, §4
# [17] = test system: SW620; settings: SW620 cell line; 120 hours incubation
# Description: as §1, §2, §3, §4
# [18] = test system: RPMI-7951; settings: RPMI-7951 cell line; 120 hours incubation
# Description: as §1, §2, §3, §4
# [19] = test system: AU-565; settings: AU-565 cell line; 120 hours incubation
# Description: as §1, §2, §3, §4
# [20] = test system: T98G; settings: T98G cell line; 120 hours incubation
# Description: as §1, §2, §3, §4
# [21] = test system: T24; settings: T24 cell line; 120 hours incubation
# Description: as §1, §2, §3, §4
# [22] = test system: SK-N-AS; settings: SK-N-AS cell line; 120 hours incubation
# Description: as §1, §2, §3, §4
# [23] = test system: LoVo; settings: LoVo cell line; 120 hours incubation
# Description: as §1, §2, §3, §4
# [24] = test system: CAL 27; settings: CAL 27 cell line; 120 hours incubation
# Description: as §1, §2, §3, §4
# [25] = test system: J82; settings: J82 cell line; 120 hours incubation
# Description: as §1, §2, §3, §4
# [26] = test system: A-704; settings: A-704 cell line; 120 hours incubation
# Description: as §1, §2, §3, §4
# [27] = test system: SR; settings: SR cell line; 120 hours incubation
# Description: as §1, §2, §3, §4
# [28] = test system: KU812; settings: KU812 cell line; 120 hours incubation
# Description: as §1, §2, §3, §4
# [29] = test system: OVCAR-3; settings: OVCAR-3 cell line; 120 hours incubation
# Description: as §1, §2, §3, §4
# [30] = test system: AsPC-1; settings: AsPC-1 cell line; 120 hours incubation
# Description: as §1, §2, §3, §4
structure (smiles),measurement,setting,value
CC(=O)O[C@H]1C(=O)[C@@]2(C)[C@H]([C@H](OC(=O)c3ccccc3)[C@]3(O)C[C@H](OC(=O)[C@H](O)[C@@H](NC(=O)c4ccccc4)c4ccccc4)C(C)=C1C3(C)C)[C@]1(OC(C)=O)CO[C@@H]1C[C@@H]2O [paclitaxel],Fold change in IC50 (IC50 [Drug + Cobicistat]/IC50 [Drug]),[1],2.6 fold
same,Fold change in IC50 (IC50 [Drug + Cobicistat]/IC50 [Drug]),[2],1.4 fold
same,Fold change in IC50 (IC50 [Drug + Cobicistat]/IC50 [Drug]),[3],3.2 fold
same,Fold change in IC50 (IC50 [Drug + Cobicistat]/IC50 [Drug]),[4],3.4 fold
same,Fold change in IC50 (IC50 [Drug + Cobicistat]/IC50 [Drug]),[5],3.5 fold
same,Fold change in IC50 (IC50 [Drug + Cobicistat]/IC50 [Drug]),[6],4.8 fold
same,Fold change in IC50 (IC50 [Drug + Cobicistat]/IC50 [Drug]),[7],2.4 fold
same,Fold change in IC50 (IC50 [Drug + Cobicistat]/IC50 [Drug]),[8],2.5 fold
same,Fold change in IC50 (IC50 [Drug + Cobicistat]/IC50 [Drug]),[9],1.3 fold
same,Fold change in IC50 (IC50 [Drug + Cobicistat]/IC50 [Drug]),[10],3.0 fold
same,Fold change in IC50 (IC50 [Drug + Cobicistat]/IC50 [Drug]),[11],2.1 fold
same,Fold change in IC50 (IC50 [Drug + Cobicistat]/IC50 [Drug]),[12],3.0 fold
same,Fold change in IC50 (IC50 [Drug + Cobicistat]/IC50 [Drug]),[13],2.9 fold
same,Fold change in IC50 (IC50 [Drug + Cobicistat]/IC50 [Drug]),[14],2.4 fold
same,Fold change in IC50 (IC50 [Drug + Cobicistat]/IC50 [Drug]),[15],3.0 fold
same,Fold change in IC50 (IC50 [Drug + Cobicistat]/IC50 [Drug]),[16],1.9 fold
same,Fold change in IC50 (IC50 [Drug + Cobicistat]/IC50 [Drug]),[17],1.8 fold
same,Fold change in IC50 (IC50 [Drug + Cobicistat]/IC50 [Drug]),[18],2.9 fold
same,Fold change in IC50 (IC50 [Drug + Cobicistat]/IC50 [Drug]),[19],2.7 fold
same,Fold change in IC50 (IC50 [Drug + Cobicistat]/IC50 [Drug]),[20],5.2 fold
same,Fold change in IC50 (IC50 [Drug + Cobicistat]/IC50 [Drug]),[21],4.4 fold
same,Fold change in IC50 (IC50 [Drug + Cobicistat]/IC50 [Drug]),[22],2.3 fold
same,Fold change in IC50 (IC50 [Drug + Cobicistat]/IC50 [Drug]),[23],1.3 fold
same,Fold change in IC50 (IC50 [Drug + Cobicistat]/IC50 [Drug]),[24],2.0 fold
same,Fold change in IC50 (IC50 [Drug + Cobicistat]/IC50 [Drug]),[25],2.9 fold
same,Fold change in IC50 (IC50 [Drug + Cobicistat]/IC50 [Drug]),[26],1.5 fold
same,Fold change in IC50 (IC50 [Drug + Cobicistat]/IC50 [Drug]),[27],1.8 fold
same,Fold change in IC50 (IC50 [Drug + Cobicistat]/IC50 [Drug]),[28],4.6 fold
same,Fold change in IC50 (IC50 [Drug + Cobicistat]/IC50 [Drug]),[29],1.7 fold
same,Fold change in IC50 (IC50 [Drug + Cobicistat]/IC50 [Drug]),[30],2.2 fold
